Assay results published in patent US20230310432A1 (JULIUS-MAXIMILIANS-UNIVERSITÄT WÜRZBURG, priority 2017, published 2023).

Columns and labels:
[1] = test system: CD19 CAR/4-1BB-T cells; Raji tumor cells; assay: Tumor burden by bioluminescence imaging, intermittent dasatinib (Example 11); format: in vivo, NSG mice; details: day 8; CAR-T cells and intermittent dasatinib 5 mg/kg; 1.9e10 without dasatinib
Protocol: (§1) The Institutional Animal Care and Use Committee of UKW approved all mouse experiments. NOD.Cg-Prkdc^scidIl2rg^tm1wjl/SzJ (NSG) mice (female, 6-8 week old) were purchased from Charles River (Sulzfeld, Germany). Mice were inoculated with 1×10^6 Raji/ffluc_GFP tumor cells via tail vein injection (i.v.). Mice were treated with 5×10^6 CAR-modified or control untransduced T-cells (CD4:CD8 ratio=1:1) via tail vein injection (i.v.). […] Tumor burden and distribution was analyzed by serial bioluminescence imaging on an IVIS Lumina imager (Perkin Elmer, Baesweiler, Germany): mice received i.p. injections of 0.3 mg/g luciferin and images were acquired 10 minutes after luciferin injection in small binning mode at an acquisition time of 1 s to 1 min to obtain unsaturated images. Data were analyzed using LivingImage Software (Caliper) and the average radiance (or photon flux) analyzed in regions of interest that encompassed the entire body of each individual mouse. Mice were sacrificed at the end of the experiment and human T cells in bone marrow, peripheral blood and spleen were analyzed by flow cytometry. The presence of (human) cytokines in serum was measured using multiplex cytokine analysis.
In brief, cohorts of 1-12 mice were inoculated with 1×10^6 firefly-luciferase_GFP-transduced Raji tumor cells on day 0. […]

[2] = test system: NFAT/GFP reporter in CD8+ CD19 CAR/4-1BB T cells; assay: NFAT/GFP reporter assay during sequential stimulation; format: cell-based, human; details: day 1
[3] = test system: CD8+ T cells expressing a ROR1 CAR with 4-1BB costimulatory domain; assay: CFSE proliferation assay, co-culture with K562/ROR1; format: cell-based, human; details: dasatinib ≥50 nM; 72 h
Protocol: (§2) Proliferation: T cells were labeled with 0.2 μM carboxyfluorescein succinimidyl ester (CFSE, Invitrogen), washed and plated in duplicate or triplicate wells with irradiated (80 Gy) stimulator cells at an E:T ratio of 4:1 (K562/ROR1, K562/CD19 or RCH-ACV). No exogenous cytokines were added to the culture medium. After a 72-hour incubation, cells were labeled with anti-CD3 mAb, and analyzed by flow cytometry to assess cell division of T cells.
(§3) CAR-T cells were labeled with CFSE and co-cultured with K562 that the inventors had transduced with either CD19 (for testing CD19 CAR-T cells) or ROR1 (for testing ROR1 CAR-T cells). Dasatinib was added to the assay medium at the beginning of the co-culture assay. Flow cytometric analyses were performed to determine the proliferation of T cells at the end of the co-culture assay.

[4] = test system: NFAT inducible GFP reporter gene in CD19CAR/41BB T cells; assay: NFAT-inducible GFP reporter expression in CAR-T cells in vivo; design: species or system NSG mice
Text: The inventors prepared CD8^+ and CD4^+ CD19CAR/41BB T cells, which the inventors transduced to co-express an NFAT inducible GFP reporter gene.

[5] = test system: CD8+ T cells expressing a ROR1 CAR with 4-1BB costimulatory domain; assay: Cytokine production and secretion (IFN-γ, IL-2 ELISA), co-culture with K562/ROR1; format: cell-based, human; details: dasatinib ≥50 nM; 20 h
Protocol: Cytokine secretion: 5×10^4 T-cells were plated in duplicate or triplicate wells with target cells at an E:T ratio of 4:1 (K562/ROR1, K562/CD19, RCH-ACV), and IFN-γ and IL-2 were measured by ELISA, or cytokine panels were measured by multiplex cytokine immunoassay (Luminex) in supernatant removed after 20-h incubation. Specific cytokine production was calculated by subtracting the amount of cytokines released by unstimulated CAR-T cells from the amount of cytokines released after antigen-specific stimulation. The remaining cytokine secretion in % as shown in the diagrams is normalized to CAR-T cells in the absence of dasatinib-treatment (100%).
CAR-T cells were co-cultured with K562 that the inventors had transduced with either CD19 (for testing CD19 CAR-T cells) or ROR1 (for testing ROR1 CAR-T cells). Dasatinib was added to the assay medium at the beginning of the co-culture assay. ELISA was performed to detect IFN-γ and IL-2 in supernatant removed from the co-culture.

[6] = test system: CAR-T cells co-expressing the iCasp suicide gene; assay: Elimination of iCasp+ T cells; format: cell-based, human; details: 100 nM dasatinib and dimerizer (dasatinib+/dimerizer+); 24 hours
Protocol: After 24 hours, cells were labeled with anti-CD3 mAB and analyzed by flow cytometry for the presence of iCasp+ T cells.
After 24 hours, cells were labeled with anti-CD3 mAB and analyzed by flow cytometry for the presence of iCasp^+ T cells.

[7] = test system: CD4+ T cells expressing a CD19 CAR with CD28 costimulatory domain; assay: Multiplex cytokine analysis, co-culture with K562/CD19; format: cell-based, human; details: dasatinib ≥25 nM; 20 h; compared to non-dasatinib treated CAR-T cells
Protocol: A multiplex cytokine analysis was performed in supernatant removed from the co-culture.

[8] = test system: CD8+ T cells expressing a CD19 CAR with CD28 costimulatory domain; assay: CFSE proliferation assay, co-culture with K562/CD19; format: cell-based, human; details: dasatinib ≥50 nM; 72 h
Protocol: as §2, §3

[9] = test system: activated CD19 CAR/4-1BB-T cells; Raji tumor cells; assay: Raji tumor burden by bioluminescence imaging, function ON/OFF/ON (Example 7); format: in vivo, NSG mice; details: between day 12 and 17; CAR-T cells with prior dasatinib; 97.8% without
Protocol: as §1, with “analysis. […]” for “analysis.”
Raji tumor burden was determined by bioluminescence imaging on day 7, day 10, day 12, day 14, day 17, and subsequently, once a week (FIG. 16B).

[10] = d+3, dasatinib not in effect any more

SMILES: Cc1nc(Nc2ncc(C(=O)Nc3c(C)cccc3Cl)s2)cc(N2CCN(CCO)CC2)n1 [dasatinib]
- average bioluminescence signal [1]: 5.6e9 p/s/cm*2/sr
- GFP MFI ([2]; dasatinib added one hour after assay set up, 1949 in untreated stimulated CAR-T cells): 734
- GFP MFI ([2]; dasatinib present from the beginning): 137
- residual proliferation compared to non-dasatinib treated CAR-T cells [3]: less than 7%
- mean fluorescence intensity (MFI) for GFP in bone marrow CAR-T cells ([4]; d+1, CAR/treated, 10687 CAR/untreated): 6967
- reduction of GFP MFI, bone marrow CAR-T cells ([4]; d+1, treated vs untreated): 35%
- reduction of GFP reporter gene expression, spleen CAR-T cells ([4]; d+1, treated vs untreated): 36%
- difference in GFP between previously treated and untreated CAR-T cells, bone marrow [4, 10]: 10%
- difference in GFP between previously treated and untreated CAR-T cells, spleen [4, 10]: 23%
- residual IFN-γ production compared to non-dasatinib treated CAR-T cells [5]: less than 3%
- residual IL-2 production compared to non-dasatinib treated CAR-T cells [5]: less than 8.5%
- percentage of iCasp+ cells [6]: 36%
- reduction of production and secretion of GM-CSF, IFN-γ, IL-2, IL-4, IL-5, IL-6, IL-8 [7]: > 95%
- residual proliferation compared to non-dasatinib treated CAR-T cells [8]: less than 7%
- reduction of tumor luminescence [9]: 66%
